{"source": "patent US8075659B2", "about": "“Preparations with improved urease-inhibiting effect and urea-containing fertilizers containing the latter” (BASF SE, priority 2006, dated 2011)", "key": {"[1]": {"tested_on": "urease", "details": "Limburgerhof soil; for % N loss based on fertilized N quantity: 30% strength urea solution, 10 days' incubation, inhibitor 0.125% (w/w) based on urea, 20° C.; for % N loss relative to NBTPT without mixing partner / % N loss relative to NPTPT without mixing partner / % N loss relative to NiBTPT without mixing partner / % N loss relative to NPenTPT without mixing partner / % N loss relative to NNDBTPT without mixing partner / % N loss relative to NcHTPT without mixing partner / % N loss relative to NNDiTPT without mixing partner: 30% urea solution, 10 days", "experimental": "(§1) The efficacy of the (thio)phosphoric triamides, individually and in combination, was tested by a method based on that of Fenn & Kissel ((1973) Ammonia volatilization from surface applications of ammonium compounds on calcareous soils. Soil Sci. Soc. Am. J. 37, 855-859) for their effect in limiting ammonia volatilization from urea or urea-comprising fertilizers. Three different soils in which ammonia volatilization after urea fertilization is particularly pronounced were used. These soils are distinguished by relatively high pH values of >6.5 and/or low base buffering. […] 200 g of dry soil per incubation vessel were moistened with 5.4 ml of fully demineralized water, and 1.087 g of urea (corresponds to 500 mg of urea-N) were applied in the form of granules. If urea-comprising solutions were tested, the 200 g of soil were moistened with an aqueous urea-comprising solution comprising 1.630 g of urea (corresponds to 750 mg of urea-N), without or with urease inhibitor or combinations of these. The solution was applied dropwise over the entire soil surface, using a pipette. The amount of (thio)phosphoric triamides as individual substances or in combination in different proportions was always a uniform 0.125% (w/w) based on urea. The incubations were accomplished at 20° C. (18-22° C.) in a controlled-environment cabinet. The ammonia collected in the acid trap was determined quantitatively as ammonium using a continuous flow analyzer (from Bran+Luebbe), proceeding by methods with which the skilled worker is familiar."}, "[2]": {"tested_on": "urease", "details": "Table 10, granulated urea, soil in France; for % N loss based on fertilized N quantity: 10 days' incubation, inhibitor 0.125% (w/w) based on urea, 20° C.; for % N loss relative to NBTPT without mixing partner / % N loss relative to NPTPT without mixing partner: 10 days, NBTPT/NPTPT series", "experimental": "as §1"}, "[3]": {"tested_on": "urease", "details": "granulated urea, Limburgerhof soil; for % N loss based on fertilized N quantity: 10 days' incubation, inhibitor 0.125% (w/w) based on urea, 20° C.; for % N loss relative to NBTPT without mixing partner / % N loss relative to NPTPT without mixing partner / % N loss relative to NiBTPT without mixing partner / % N loss relative to NPenTPT without mixing partner / % N loss relative to NcHTPT without mixing partner: 10 days", "experimental": "as §1"}, "[4]": {"tested_on": "urease", "details": "Table 9, granulated urea, soil in Hanover; for % N loss based on fertilized N quantity: 10 days' incubation, inhibitor 0.125% (w/w) based on urea, 20° C.; for % N loss relative to NBTPT without mixing partner / % N loss relative to NPTPT without mixing partner: 10 days, NBTPT/NPTPT series", "experimental": "as §1"}, "[5]": {"details": "Table 11, comparative experiment"}, "[6]": {"details": "Table 12, comparative experiment"}, "[7]": {"details": "Table 12, NBTPT/NNDiBTPT series"}}, "note": "Read-outs that look alike come from different tables or passages of the source.", "data": [{"smiles": "CCCNP(N)(N)=S", "note": "[NPTPT, N-n-propylthiophosphoric triamide]", "values": [{"measurement": "% N loss based on fertilized N quantity", "setting": "[1]; Table 8", "value": 0.42, "unit": "%"}, {"measurement": "% N loss relative to NBTPT without mixing partner", "setting": "[1]; Table 8, NBTPT/NPTPT series", "value": 127, "unit": "%"}, {"measurement": "% N loss relative to NPTPT without mixing partner", "setting": "[1]; Table 8, NBTPT/NPTPT series", "value": 100, "unit": "%"}, {"measurement": "% N loss based on fertilized N quantity", "setting": "[2]", "value": 1.57, "unit": "%"}, {"measurement": "% N loss relative to NBTPT without mixing partner", "setting": "[2]", "value": 121, "unit": "%"}, {"measurement": "% N loss relative to NPTPT without mixing partner", "setting": "[2]", "value": 100, "unit": "%"}, {"measurement": "% N loss based on fertilized N quantity", "setting": "[3]; Table 4", "value": 1.60, "unit": "%"}, {"measurement": "% N loss relative to NBTPT without mixing partner", "setting": "[3]; Table 4, NBTPT/NPTPT series", "value": 104, "unit": "%"}, {"measurement": "% N loss relative to NPTPT without mixing partner", "setting": "[3]; Table 4, NBTPT/NPTPT series", "value": 100, "unit": "%"}, {"measurement": "% N loss based on fertilized N quantity", "setting": "[4]", "value": 2.08, "unit": "%"}, {"measurement": "% N loss relative to NBTPT without mixing partner", "setting": "[4]", "value": 158, "unit": "%"}, {"measurement": "% N loss relative to NPTPT without mixing partner", "setting": "[4]", "value": 100, "unit": "%"}]}, {"smiles": "CC(C)CNP(N)(N)=S", "note": "[NiBTPT, N-isobutylthiophosphoric triamide]", "values": [{"measurement": "% N loss based on fertilized N quantity", "setting": "[1]; Table 7", "value": 0.54, "unit": "%"}, {"measurement": "% N loss relative to NBTPT without mixing partner", "setting": "[1]; Table 7, NBTPT/NiBTPT series", "value": 164, "unit": "%"}, {"measurement": "% N loss relative to NiBTPT without mixing partner", "setting": "[1]; Table 7, NBTPT/NiBTPT series", "value": 100, "unit": "%"}, {"measurement": "% N loss based on fertilized N quantity", "setting": "[3]; Table 3", "value": 1.68, "unit": "%"}, {"measurement": "% N loss relative to NBTPT without mixing partner", "setting": "[3]; Table 3, NBTPT/NiBTPT series", "value": 109, "unit": "%"}, {"measurement": "% N loss relative to NiBTPT without mixing partner", "setting": "[3]; Table 3, NBTPT/NiBTPT series", "value": 100, "unit": "%"}]}, {"smiles": "CCCCCNP(N)(N)=S", "note": "[NPenTPT, N-pentylthiophosphoric triamide]", "values": [{"measurement": "% N loss based on fertilized N quantity", "setting": "[1]; Table 6", "value": 1.12, "unit": "%"}, {"measurement": "% N loss relative to NBTPT without mixing partner", "setting": "[1]; Table 6, NBTPT/NPenTPT series", "value": 158, "unit": "%"}, {"measurement": "% N loss relative to NPenTPT without mixing partner", "setting": "[1]; Table 6, NBTPT/NPenTPT series", "value": 100, "unit": "%"}, {"measurement": "% N loss based on fertilized N quantity", "setting": "[3]; Table 2", "value": 2.46, "unit": "%"}, {"measurement": "% N loss relative to NBTPT without mixing partner", "setting": "[3]; Table 2, NBTPT/NPenTPT series", "value": 130, "unit": "%"}, {"measurement": "% N loss relative to NPenTPT without mixing partner", "setting": "[3]; Table 2, NBTPT/NPenTPT series", "value": 100, "unit": "%"}]}, {"smiles": "CCCCN(CCCC)P(N)(N)=S", "note": "[NNDBTPT, N,N-di-n-butylthiophosphoric triamide]", "values": [{"measurement": "% N loss based on fertilized N quantity", "setting": "[1]; [5]", "value": 19.24, "unit": "%"}, {"measurement": "% N loss relative to NBTPT without mixing partner", "setting": "[1]; Table 11, NBTPT/NNDBTPT series", "value": 1013, "unit": "%"}, {"measurement": "% N loss relative to NNDBTPT without mixing partner", "setting": "[1]; Table 11, NBTPT/NNDBTPT series", "value": 100, "unit": "%"}]}, {"smiles": "NP(N)(=S)NC1CCCCC1", "note": "[NcHTPT, N-cyclohexylthiophosphoric triamide]", "values": [{"measurement": "% N loss based on fertilized N quantity", "setting": "[1]; Table 5", "value": 1.11, "unit": "%"}, {"measurement": "% N loss relative to NBTPT without mixing partner", "setting": "[1]; Table 5, NBTPT/NcHTPT series", "value": 160, "unit": "%"}, {"measurement": "% N loss relative to NcHTPT without mixing partner", "setting": "[1]; Table 5, NBTPT/NcHTPT series", "value": 100, "unit": "%"}, {"measurement": "% N loss based on fertilized N quantity", "setting": "[3]; Table 1", "value": 2.77, "unit": "%"}, {"measurement": "% N loss relative to NBTPT without mixing partner", "setting": "[3]; Table 1, NBTPT/NcHTPT series", "value": 180, "unit": "%"}, {"measurement": "% N loss relative to NcHTPT without mixing partner", "setting": "[3]; Table 1, NBTPT/NcHTPT series", "value": 100, "unit": "%"}]}, {"smiles": "CCCCNP(N)(N)=S", "note": "[NBTPT, N-n-butylthiophosphoric triamide]", "values": [{"measurement": "% N loss based on fertilized N quantity", "setting": "[1]; Table 5", "value": 0.69, "unit": "%"}, {"measurement": "% N loss relative to NBTPT without mixing partner", "setting": "[1]; Table 5, NBTPT/NcHTPT series", "value": 100, "unit": "%"}, {"measurement": "% N loss relative to NcHTPT without mixing partner", "setting": "[1]; Table 5, NBTPT/NcHTPT series", "value": 62, "unit": "%"}, {"measurement": "% N loss based on fertilized N quantity", "setting": "[1]; Table 6", "value": 0.71, "unit": "%"}, {"measurement": "% N loss relative to NBTPT without mixing partner", "setting": "[1]; Table 6, NBTPT/NPenTPT series", "value": 100, "unit": "%"}, {"measurement": "% N loss relative to NPenTPT without mixing partner", "setting": "[1]; Table 6, NBTPT/NPenTPT series", "value": 63, "unit": "%"}, {"measurement": "% N loss based on fertilized N quantity", "setting": "[1]; Table 7", "value": 0.33, "unit": "%"}, {"measurement": "% N loss relative to NBTPT without mixing partner", "setting": "[1]; Table 7, NBTPT/NiBTPT series", "value": 100, "unit": "%"}, {"measurement": "% N loss relative to NiBTPT without mixing partner", "setting": "[1]; Table 7, NBTPT/NiBTPT series", "value": 61, "unit": "%"}, {"measurement": "% N loss based on fertilized N quantity", "setting": "[1]; Table 8", "value": 0.33, "unit": "%"}, {"measurement": "% N loss relative to NBTPT without mixing partner", "setting": "[1]; Table 8, NBTPT/NPTPT series", "value": 100, "unit": "%"}, {"measurement": "% N loss relative to NPTPT without mixing partner", "setting": "[1]; Table 8, NBTPT/NPTPT series", "value": 79, "unit": "%"}, {"measurement": "% N loss based on fertilized N quantity", "setting": "[1]; [5]", "value": 1.90, "unit": "%"}, {"measurement": "% N loss relative to NBTPT without mixing partner", "setting": "[1]; Table 11, NBTPT/NNDBTPT series", "value": 100, "unit": "%"}, {"measurement": "% N loss relative to NNDBTPT without mixing partner", "setting": "[1]; Table 11, NBTPT/NNDBTPT series", "value": 10, "unit": "%"}, {"measurement": "% N loss based on fertilized N quantity", "setting": "[1]; [6]", "value": 1.90, "unit": "%"}, {"measurement": "% N loss relative to NBTPT without mixing partner", "setting": "[1]; [7]", "value": 100, "unit": "%"}, {"measurement": "% N loss relative to NNDiTPT without mixing partner", "setting": "[1]; [7]", "value": 9, "unit": "%"}, {"measurement": "% N loss based on fertilized N quantity", "setting": "[2]", "value": 1.30, "unit": "%"}, {"measurement": "% N loss relative to NBTPT without mixing partner", "setting": "[2]", "value": 100, "unit": "%"}, {"measurement": "% N loss relative to NPTPT without mixing partner", "setting": "[2]", "value": 83, "unit": "%"}, {"measurement": "% N loss based on fertilized N quantity", "setting": "[3]; Table 1", "value": 1.54, "unit": "%"}, {"measurement": "% N loss relative to NBTPT without mixing partner", "setting": "[3]; Table 1, NBTPT/NcHTPT series", "value": 100, "unit": "%"}, {"measurement": "% N loss relative to NcHTPT without mixing partner", "setting": "[3]; Table 1, NBTPT/NcHTPT series", "value": 56, "unit": "%"}, {"measurement": "% N loss based on fertilized N quantity", "setting": "[3]; Table 2", "value": 1.54, "unit": "%"}, {"measurement": "% N loss relative to NBTPT without mixing partner", "setting": "[3]; Table 2, NBTPT/NPenTPT series", "value": 100, "unit": "%"}, {"measurement": "% N loss relative to NPenTPT without mixing partner", "setting": "[3]; Table 2, NBTPT/NPenTPT series", "value": 63, "unit": "%"}, {"measurement": "% N loss based on fertilized N quantity", "setting": "[3]; Table 3", "value": 1.54, "unit": "%"}, {"measurement": "% N loss relative to NBTPT without mixing partner", "setting": "[3]; Table 3, NBTPT/NiBTPT series", "value": 100, "unit": "%"}, {"measurement": "% N loss relative to NiBTPT without mixing partner", "setting": "[3]; Table 3, NBTPT/NiBTPT series", "value": 92, "unit": "%"}, {"measurement": "% N loss based on fertilized N quantity", "setting": "[3]; Table 4", "value": 1.54, "unit": "%"}, {"measurement": "% N loss relative to NBTPT without mixing partner", "setting": "[3]; Table 4, NBTPT/NPTPT series", "value": 100, "unit": "%"}, {"measurement": "% N loss relative to NPTPT without mixing partner", "setting": "[3]; Table 4, NBTPT/NPTPT series", "value": 96, "unit": "%"}, {"measurement": "% N loss based on fertilized N quantity", "setting": "[4]", "value": 1.32, "unit": "%"}, {"measurement": "% N loss relative to NBTPT without mixing partner", "setting": "[4]", "value": 100, "unit": "%"}, {"measurement": "% N loss relative to NPTPT without mixing partner", "setting": "[4]", "value": 63, "unit": "%"}]}, {"smiles": "CC(C)CN(CC(C)C)P(N)(N)=S", "note": "[NNDiBTPT, N,N-di-isobutylthiophosphoric triamide]", "values": [{"measurement": "% N loss based on fertilized N quantity", "setting": "[1]; [6]", "value": 21.83, "unit": "%"}, {"measurement": "% N loss relative to NBTPT without mixing partner", "setting": "[1]; [7]", "value": 1149, "unit": "%"}, {"measurement": "% N loss relative to NNDiTPT without mixing partner", "setting": "[1]; [7]", "value": 100, "unit": "%"}]}]}
